Consider three molecules from patent publication US20090169487A1, “Essential Oil Diffusion” (priority 2007, published 2009).

The conditions of test [1]: asthmatics, double-blind randomized control trial; cited from earlier work.
Test [2] can be described thus: Case report: diffused essential oils after NAC and Dornase Alfa in a child with RSV, oxygen requirement and atelectasis. The note with it: for Overall response of oxygen requirement to treatment: summary of the case. It counts as in vivo, human. The source says:
They experienced a three day prodrome of upper and lower respiratory symptoms and increasing oxygen requirement treated initially at home. They were admitted to a local hospital 7 days prior to the current admission where they continued to received oxygen and was started on a 7 day antibiotic course despite a positive respiratory direct fluorescent antibody test for RSV. They were discharged home on 3 liters oxygen and persistent left upper lobe atelectasis. They presented to our pediatric intensive care unit (PICU) within 12 hours of discharge with respiratory distress and central cyanosis, pulse oximetry oxygen saturation (spO2) 83% off oxygen, 88% on 3 liters per minute (LPM) oxygen.
Past medical history was significant for titanium rib insertion for restrictive lung disease, metal rods for thoracic scoliosis, hip repair for hip dislocation, and gastric feeding tube placement. Their home medication regimen included a multivitamin, calcium carbonate, and levalbuterol 1 unit dose nebulized every 8 hours. Lasix had been added during the prior hospitalization.
MW was placed on 6 liters humidified, high-flow nasal canula oxygen (NC O2), achieving a spO2 of 93-98%. […] pulmonary toilet regimen consisted of percussor chest physiotherapy every four hours and postural drainage. On day 4 of admission, day 14 of oxygen requirement, nebulized 20% n-acetyl cysteine (NAC) every eight hours was added. Oxygen requirement began to improve over the next 24 hours, weaning to 2 LPM NC O2, but returned to 3 LPM when […] remained persistently below spO2 93%. Nebulized Dornase Alfa 2.5 mg every twelve hours was added on day 7, day 17 of oxygen requirement. Oxygen requirement remained at 3 LPM with frequent desaturations to the mid 80's despite the intensification of mucolytic therapy.
On day 8, the previous treatments were discontinued and the essential oil mixture described in TABLE 1, above, including Lavandula latifolia (spike lavender), Thymus mastichina (Spanish marjoram), Abies balsamea (balsam fir), and Mentha×piperita (peppermint) was nebulized at the parents' request. Three drops were applied to a fibrous filter inserted into the base of a fan diffuser (Fan Fuser, Cinegraph, Inc. Seal Beach, Calif.). The mixture was diffused every six hours into the room and passively inhaled by MW. Oxygen requirement was reduced to 1.5 LPM within 12 hours. […] MW was weaned to ¼ LPM NC O2 on the second day of use wand discharged home with an spO2 of 97%, on day 10 of admission, day 20 of oxygen requirement.

As for `CC12CCC(CC1)C(C)(C)O2` [eucalyptol, 1,8 cineole], in test [1], the Steroid-sparing effect result is “steroid-sparing effects”.

Regarding `CC(=O)N[C@@H](CS)C(=O)O` [n-acetyl cysteine (NAC), N-Acetyl Cysteine], in test [2] (on NAC, when they remained persistently below spO2 93%), the “Oxygen requirement returned to” value was determined as 3 LPM. Besides, the “Oxygen requirement (NC O2)” value in test [2] (over the next 24 hours after adding nebulized 20% NAC every eight hours, from 6 liters high-flow) came to 2 LPM. Moreover, the “Overall response of oxygen requirement to treatment” value in test [2] is listed as “insufficient or worsening response”.

B1: Dornase Alfa: recombinant human DNase which decreases the viscoelasticity of mucous (protein, UniProt P24855 23-282, looked up)
Deoxyribonuclease-1: LKIAAFNIQTFGETKMSNATLVSYIVQILSRYDIALVQEVRDSHLTAVGKLLDNLNQDAPDTYHYVVSEPLGRNSYKERYLFVYRPDQVSAVDSYYYDDGCEPCGNDTFNREPAIVRFFSRFTEVREFAIVPLHAAPGDAVAEIDALYDVYLDVQEKWGLEDVMLMGDFNAGCSYVRPSQWSSIRLWTSPTFQWLIPDSADTTATPTHCAYDRIVVAGMLLRGAVVPDSALPFNFQAAYGLSDQLAQAISDHYPVEVMLK
In the case of B1, in test [2] (frequent desaturations despite intensified mucolytic therapy (NAC plus Dornase Alfa)), the “Desaturations (spO2)” value is reported as “mid 80's”. In test [2] (nebulized 2.5 mg every twelve hours added on day 7, on top of NAC), the Oxygen requirement turned out to be 3 LPM. Moreover, in test [2], the “Overall response of oxygen requirement to treatment” value is given as “insufficient or worsening response”.
